Data reported in ChEMBL document CHEMBL5442219.

Assays:
Details in all cases: Compound concentration 10 µM
[1] = target: Delta-type opioid receptor (Homo sapiens) (UniProt P41143)
[2] = target: 5-hydroxytryptamine receptor 2B (Homo sapiens) (UniProt P41595)
[3] = target: Histamine H2 receptor (Homo sapiens) (UniProt P25021)
[4] = target: Histamine H4 receptor (Homo sapiens) (UniProt Q9H3N8)
[5] = target: Muscarinic acetylcholine receptor M3 (Homo sapiens) (UniProt P20309)
[6] = target: Sigma intracellular receptor 2 (Homo sapiens) (UniProt Q5BJF2)
Sequence of Sigma intracellular receptor 2 (Homo sapiens) (Q5BJF2 whole entry): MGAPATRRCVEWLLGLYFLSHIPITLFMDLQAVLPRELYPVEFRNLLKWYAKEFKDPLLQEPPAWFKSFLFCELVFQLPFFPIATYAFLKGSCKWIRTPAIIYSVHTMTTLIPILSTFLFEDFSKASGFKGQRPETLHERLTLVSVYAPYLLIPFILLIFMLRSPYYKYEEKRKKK

[7] = target: Kappa-type opioid receptor (Homo sapiens) (UniProt P41145)
[8] = target: D(1A) dopamine receptor (Homo sapiens) (UniProt P21728)
Sequence of D(1A) dopamine receptor (Homo sapiens) (P21728 whole entry): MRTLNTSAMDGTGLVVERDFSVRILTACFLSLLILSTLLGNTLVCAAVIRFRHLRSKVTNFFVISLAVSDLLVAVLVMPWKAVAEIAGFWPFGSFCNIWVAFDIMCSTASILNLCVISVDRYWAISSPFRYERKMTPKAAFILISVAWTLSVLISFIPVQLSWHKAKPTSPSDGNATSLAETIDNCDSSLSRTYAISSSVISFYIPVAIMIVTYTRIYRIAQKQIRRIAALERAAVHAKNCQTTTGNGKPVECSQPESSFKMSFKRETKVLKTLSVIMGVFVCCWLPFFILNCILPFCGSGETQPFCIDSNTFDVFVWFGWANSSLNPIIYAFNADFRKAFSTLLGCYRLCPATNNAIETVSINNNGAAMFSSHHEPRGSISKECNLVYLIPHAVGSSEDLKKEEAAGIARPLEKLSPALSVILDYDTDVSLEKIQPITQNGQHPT

[9] = target: D(3) dopamine receptor (Homo sapiens) (UniProt P35462)
Sequence of D(3) dopamine receptor (Homo sapiens) (P35462 whole entry): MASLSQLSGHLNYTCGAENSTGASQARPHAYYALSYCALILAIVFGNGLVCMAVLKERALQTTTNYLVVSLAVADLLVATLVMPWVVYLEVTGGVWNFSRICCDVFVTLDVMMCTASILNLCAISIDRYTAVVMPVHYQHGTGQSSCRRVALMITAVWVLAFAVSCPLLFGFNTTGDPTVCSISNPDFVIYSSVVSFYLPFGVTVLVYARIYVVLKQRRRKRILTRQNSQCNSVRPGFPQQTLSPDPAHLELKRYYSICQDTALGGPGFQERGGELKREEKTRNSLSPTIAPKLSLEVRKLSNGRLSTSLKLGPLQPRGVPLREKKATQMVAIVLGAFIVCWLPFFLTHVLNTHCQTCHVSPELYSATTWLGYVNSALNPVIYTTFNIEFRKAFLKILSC

[10] = target: Beta-1 adrenergic receptor (Homo sapiens) (UniProt P08588)
[11] = target: T1, Muscarinic acetylcholine receptor M2 (Homo sapiens) (UniProt P08172)
T1 sequence (whole entry): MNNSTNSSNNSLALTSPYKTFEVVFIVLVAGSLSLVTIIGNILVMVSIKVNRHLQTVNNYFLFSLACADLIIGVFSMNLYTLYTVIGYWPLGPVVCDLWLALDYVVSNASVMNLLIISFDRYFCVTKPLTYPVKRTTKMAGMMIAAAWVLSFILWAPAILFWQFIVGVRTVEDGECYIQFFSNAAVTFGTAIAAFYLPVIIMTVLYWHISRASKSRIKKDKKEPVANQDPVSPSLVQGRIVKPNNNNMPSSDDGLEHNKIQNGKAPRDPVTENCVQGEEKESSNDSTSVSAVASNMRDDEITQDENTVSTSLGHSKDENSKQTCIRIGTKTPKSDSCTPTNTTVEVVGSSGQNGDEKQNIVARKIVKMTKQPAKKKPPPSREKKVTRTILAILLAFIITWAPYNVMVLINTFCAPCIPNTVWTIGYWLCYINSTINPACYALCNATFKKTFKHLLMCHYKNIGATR

[12] = target: 5-hydroxytryptamine receptor 6 (Homo sapiens) (UniProt P50406)
Sequence of 5-hydroxytryptamine receptor 6 (Homo sapiens) (P50406 whole entry): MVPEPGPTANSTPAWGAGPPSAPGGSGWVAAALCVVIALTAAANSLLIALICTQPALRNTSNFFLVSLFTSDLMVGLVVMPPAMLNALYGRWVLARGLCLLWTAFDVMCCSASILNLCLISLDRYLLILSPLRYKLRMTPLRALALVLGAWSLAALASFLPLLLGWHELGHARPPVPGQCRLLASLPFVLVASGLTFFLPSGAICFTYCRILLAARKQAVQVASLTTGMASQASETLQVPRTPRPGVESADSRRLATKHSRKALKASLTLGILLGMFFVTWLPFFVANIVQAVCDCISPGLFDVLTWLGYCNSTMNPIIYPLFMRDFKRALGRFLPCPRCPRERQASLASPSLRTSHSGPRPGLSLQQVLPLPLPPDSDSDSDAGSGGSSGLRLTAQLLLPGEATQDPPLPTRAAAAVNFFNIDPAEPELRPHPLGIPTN

[13] = target: Sodium-dependent dopamine transporter (Homo sapiens) (UniProt Q01959)
Sequence of Sodium-dependent dopamine transporter (Homo sapiens) (Q01959 whole entry): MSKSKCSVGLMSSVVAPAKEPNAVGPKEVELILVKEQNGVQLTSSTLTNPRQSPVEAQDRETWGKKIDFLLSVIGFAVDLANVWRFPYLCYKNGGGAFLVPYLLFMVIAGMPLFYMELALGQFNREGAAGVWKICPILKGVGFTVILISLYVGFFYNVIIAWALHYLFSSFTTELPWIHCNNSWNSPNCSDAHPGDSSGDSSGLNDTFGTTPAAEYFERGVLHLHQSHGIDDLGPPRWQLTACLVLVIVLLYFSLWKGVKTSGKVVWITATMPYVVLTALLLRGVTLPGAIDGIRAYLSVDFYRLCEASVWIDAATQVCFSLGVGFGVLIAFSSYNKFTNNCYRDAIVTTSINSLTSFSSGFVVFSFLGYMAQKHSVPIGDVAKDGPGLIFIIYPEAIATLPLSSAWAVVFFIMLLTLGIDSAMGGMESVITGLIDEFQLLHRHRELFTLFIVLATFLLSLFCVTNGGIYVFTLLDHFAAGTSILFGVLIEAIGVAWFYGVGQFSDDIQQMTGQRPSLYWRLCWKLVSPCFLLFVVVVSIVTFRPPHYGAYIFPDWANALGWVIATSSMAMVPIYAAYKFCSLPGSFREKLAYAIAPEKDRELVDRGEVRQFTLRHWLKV

[14] = target: 5-hydroxytryptamine receptor 2A (Homo sapiens) (UniProt P28223)
Sequence of 5-hydroxytryptamine receptor 2A (Homo sapiens) (P28223 whole entry): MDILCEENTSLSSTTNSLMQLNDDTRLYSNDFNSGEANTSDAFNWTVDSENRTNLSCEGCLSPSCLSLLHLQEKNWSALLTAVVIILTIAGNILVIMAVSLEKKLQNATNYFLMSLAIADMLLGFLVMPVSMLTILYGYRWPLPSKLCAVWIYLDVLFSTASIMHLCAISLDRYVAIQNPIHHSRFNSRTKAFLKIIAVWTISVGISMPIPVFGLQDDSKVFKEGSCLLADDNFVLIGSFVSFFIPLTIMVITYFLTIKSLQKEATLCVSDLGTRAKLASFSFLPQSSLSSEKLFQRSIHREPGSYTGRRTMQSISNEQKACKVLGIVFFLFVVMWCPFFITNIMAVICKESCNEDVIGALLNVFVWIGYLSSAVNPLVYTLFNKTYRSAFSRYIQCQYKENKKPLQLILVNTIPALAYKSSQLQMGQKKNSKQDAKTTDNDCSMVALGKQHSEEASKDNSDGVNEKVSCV

[15] = target: Beta-3 adrenergic receptor (Homo sapiens) (UniProt P13945)
[16] = target: D(1B) dopamine receptor (Homo sapiens) (UniProt P21918)
Sequence of D(1B) dopamine receptor (Homo sapiens) (P21918 whole entry): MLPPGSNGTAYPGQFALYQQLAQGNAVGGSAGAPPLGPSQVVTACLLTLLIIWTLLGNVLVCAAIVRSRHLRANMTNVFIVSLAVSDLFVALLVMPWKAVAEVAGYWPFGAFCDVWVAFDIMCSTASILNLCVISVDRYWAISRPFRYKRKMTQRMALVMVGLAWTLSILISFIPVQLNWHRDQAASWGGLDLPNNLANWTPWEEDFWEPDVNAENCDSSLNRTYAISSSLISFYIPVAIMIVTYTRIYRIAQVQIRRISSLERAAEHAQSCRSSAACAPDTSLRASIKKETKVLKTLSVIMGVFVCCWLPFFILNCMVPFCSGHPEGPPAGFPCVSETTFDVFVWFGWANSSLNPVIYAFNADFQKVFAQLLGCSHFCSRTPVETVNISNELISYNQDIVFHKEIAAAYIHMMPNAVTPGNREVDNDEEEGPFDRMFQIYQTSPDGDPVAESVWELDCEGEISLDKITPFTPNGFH

[17] = target: Sodium-dependent serotonin transporter (Homo sapiens) (UniProt P31645)
[18] = target: T2, 5-hydroxytryptamine receptor 3A (Homo sapiens) (UniProt P46098)
T2 sequence (whole entry): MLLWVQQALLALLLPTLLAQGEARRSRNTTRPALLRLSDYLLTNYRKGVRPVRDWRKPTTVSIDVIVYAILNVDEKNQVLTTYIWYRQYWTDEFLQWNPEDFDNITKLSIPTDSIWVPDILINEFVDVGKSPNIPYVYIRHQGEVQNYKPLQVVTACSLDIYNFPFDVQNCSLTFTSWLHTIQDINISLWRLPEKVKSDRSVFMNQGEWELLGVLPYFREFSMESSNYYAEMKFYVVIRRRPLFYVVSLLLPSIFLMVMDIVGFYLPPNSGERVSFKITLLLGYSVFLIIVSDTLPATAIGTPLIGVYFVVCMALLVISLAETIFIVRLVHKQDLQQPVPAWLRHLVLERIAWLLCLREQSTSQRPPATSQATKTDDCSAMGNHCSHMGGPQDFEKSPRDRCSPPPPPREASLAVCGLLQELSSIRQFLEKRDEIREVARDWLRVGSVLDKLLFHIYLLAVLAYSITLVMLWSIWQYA

[19] = target: T3, D(4) dopamine receptor (Homo sapiens) (UniProt P21917)
T3 sequence (whole entry): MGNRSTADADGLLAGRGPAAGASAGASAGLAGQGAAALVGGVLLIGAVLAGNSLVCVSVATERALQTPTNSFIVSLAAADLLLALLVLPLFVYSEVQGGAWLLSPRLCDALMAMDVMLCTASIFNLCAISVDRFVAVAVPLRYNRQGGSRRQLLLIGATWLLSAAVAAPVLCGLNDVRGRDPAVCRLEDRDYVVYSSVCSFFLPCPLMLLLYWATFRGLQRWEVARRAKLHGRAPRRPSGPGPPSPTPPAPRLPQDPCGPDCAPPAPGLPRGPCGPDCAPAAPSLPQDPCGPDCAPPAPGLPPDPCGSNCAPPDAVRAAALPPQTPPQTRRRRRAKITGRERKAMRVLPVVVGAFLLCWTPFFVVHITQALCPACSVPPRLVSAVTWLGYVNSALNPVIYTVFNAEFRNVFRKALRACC

[20] = target: Histamine H3 receptor (Homo sapiens) (UniProt Q9Y5N1)
Sequence of Histamine H3 receptor (Homo sapiens) (Q9Y5N1 whole entry): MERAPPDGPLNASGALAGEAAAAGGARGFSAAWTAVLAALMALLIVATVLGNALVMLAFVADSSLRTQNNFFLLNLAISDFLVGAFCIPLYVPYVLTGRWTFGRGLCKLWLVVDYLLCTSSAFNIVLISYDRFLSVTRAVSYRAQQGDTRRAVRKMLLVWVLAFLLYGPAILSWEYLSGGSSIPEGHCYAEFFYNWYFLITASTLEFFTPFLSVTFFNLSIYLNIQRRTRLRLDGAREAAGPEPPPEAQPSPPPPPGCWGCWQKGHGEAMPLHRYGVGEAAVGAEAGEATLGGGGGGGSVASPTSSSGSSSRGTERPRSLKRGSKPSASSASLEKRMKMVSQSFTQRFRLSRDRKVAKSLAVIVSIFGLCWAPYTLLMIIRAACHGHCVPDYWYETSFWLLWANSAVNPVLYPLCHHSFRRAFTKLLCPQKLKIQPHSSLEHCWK

[21] = target: 5-hydroxytryptamine receptor 1D (Homo sapiens) (UniProt P28221)

Sequence of Histamine H4 receptor (Homo sapiens) (Q9H3N8 whole entry): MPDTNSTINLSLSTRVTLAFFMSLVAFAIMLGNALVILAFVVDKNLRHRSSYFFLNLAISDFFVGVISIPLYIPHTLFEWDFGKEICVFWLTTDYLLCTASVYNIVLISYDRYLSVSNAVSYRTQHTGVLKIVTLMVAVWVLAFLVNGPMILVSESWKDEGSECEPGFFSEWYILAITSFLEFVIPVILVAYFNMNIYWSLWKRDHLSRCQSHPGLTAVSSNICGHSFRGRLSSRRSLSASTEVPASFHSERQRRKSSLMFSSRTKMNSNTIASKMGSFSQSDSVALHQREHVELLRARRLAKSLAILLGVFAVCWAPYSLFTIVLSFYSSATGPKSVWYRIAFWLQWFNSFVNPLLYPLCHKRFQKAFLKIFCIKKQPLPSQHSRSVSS
Sequence of Delta-type opioid receptor (Homo sapiens) (P41143 whole entry): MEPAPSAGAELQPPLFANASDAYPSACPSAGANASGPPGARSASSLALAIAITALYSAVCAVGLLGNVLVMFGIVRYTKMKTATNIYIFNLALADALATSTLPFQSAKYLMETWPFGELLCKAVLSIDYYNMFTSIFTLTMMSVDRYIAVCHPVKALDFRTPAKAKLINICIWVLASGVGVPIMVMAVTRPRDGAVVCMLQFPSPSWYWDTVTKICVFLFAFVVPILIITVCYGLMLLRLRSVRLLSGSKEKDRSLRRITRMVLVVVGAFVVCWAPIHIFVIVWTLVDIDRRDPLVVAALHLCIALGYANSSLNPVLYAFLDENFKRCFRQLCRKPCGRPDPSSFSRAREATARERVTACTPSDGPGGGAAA
Sequence of Muscarinic acetylcholine receptor M3 (Homo sapiens) (P20309 whole entry, looked up): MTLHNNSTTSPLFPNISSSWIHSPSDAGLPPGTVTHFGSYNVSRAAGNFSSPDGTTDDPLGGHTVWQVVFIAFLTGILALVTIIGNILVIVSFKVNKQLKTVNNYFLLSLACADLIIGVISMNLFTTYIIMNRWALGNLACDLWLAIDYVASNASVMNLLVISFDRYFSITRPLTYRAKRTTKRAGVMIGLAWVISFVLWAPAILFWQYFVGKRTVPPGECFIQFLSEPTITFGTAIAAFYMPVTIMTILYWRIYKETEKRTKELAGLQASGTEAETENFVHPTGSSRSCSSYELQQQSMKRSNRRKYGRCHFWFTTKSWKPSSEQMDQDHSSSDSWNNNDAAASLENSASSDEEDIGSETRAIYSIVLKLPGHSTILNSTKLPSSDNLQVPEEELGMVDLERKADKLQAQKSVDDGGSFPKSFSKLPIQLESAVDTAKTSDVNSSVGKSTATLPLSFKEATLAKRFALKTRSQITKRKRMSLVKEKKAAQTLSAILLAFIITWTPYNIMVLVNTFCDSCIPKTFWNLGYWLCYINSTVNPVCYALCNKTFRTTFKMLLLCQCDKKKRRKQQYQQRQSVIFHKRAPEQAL

Clc1cccc(COc2cncc(N3CCNCC3)n2)c1 showed an inhibition [1] of -4.82%, an inhibition [2] of 99.5% and an inhibition [3] of 14.4%. The inhibition [4] was 49.1%, the inhibition [5] was 82.1% and the inhibition [6] was 86.4%. The inhibition [7] was 28.3%, the inhibition [8] was 29.3% and the inhibition [9] was 79.6%. It also gave an inhibition [10] of 50.8%, an inhibition [11] of 33.3% and an inhibition [12] of 97.9%. For the same molecule, the inhibition [13] was 33.5%, the inhibition [14] was 99% and the inhibition [15] was 28.7%. It also gave an inhibition [16] of 11.8%, an inhibition [17] of 2.44% and an inhibition [18] of 97.8%. It also gave an inhibition [19] of 42.2%, an inhibition [20] of 20.2% and an inhibition [21] of 89.1%.

For COc1cccc([C@@H](C)NCCCc2ccccc2Cl)c1, the inhibition [1] was 11.8%, the inhibition [2] was 96.6% and the inhibition [3] was 72.6%. The inhibition [4] was 0%, the inhibition [5] was 0.89% and the inhibition [6] was 96.3%. For the same molecule, the inhibition [7] was 65.3%, the inhibition [8] was 12.6% and the inhibition [9] was 85%. For the same molecule, the inhibition [10] was 15.9%, the inhibition [11] was 7% and the inhibition [12] was 84.3%. It also gave an inhibition [13] of 31.1%, an inhibition [14] of 91.1% and an inhibition [15] of 50.2%. It also gave an inhibition [16] of 8.31%, an inhibition [17] of 26.1% and an inhibition [18] of -2.74%. For the same molecule, the inhibition [19] was 32.2%, the inhibition [20] was 26.7% and the inhibition [21] was 33.7%.

COc1ccc(NS(=O)(=O)c2sc3ccc(Cl)cc3c2C)cc1N1CCNCC1 was tested, and the inhibition [1] was 29.8%, the inhibition [2] was 71.2% and the inhibition [3] was 13.5%. For the same molecule, the inhibition [4] was 18.2%, the inhibition [5] was 3.19% and the inhibition [6] was 81.8%. The inhibition [7] was 75.5%, the inhibition [8] was 16.9% and the inhibition [9] was 91%. It also gave an inhibition [10] of 50.6%, an inhibition [11] of 17% and an inhibition [12] of 87.3%. For the same molecule, the inhibition [13] was 63.1%, the inhibition [14] was 37.4% and the inhibition [15] was 56.5%. For the same molecule, the inhibition [16] was 22.4%, the inhibition [17] was 37.7% and the inhibition [18] was 73.3%. For the same molecule, the inhibition [19] was 0.64%, the inhibition [20] was 16.6% and the inhibition [21] was 66.8%.
